Literature values in patent US9920373B2, “Biomarkers of response to proteasome inhibitors” (MILLENNIUM PHARMACEUTICALS, INC., priority 2011, dated 2018).

Conditions: upon exposure to aqueous solutions or plasma; cited from earlier work

## CC(C)C[C@H](NC(=O)CNC(=O)c1cc(Cl)ccc1Cl)B1OC(=O)C(CC(=O)O)(CC(=O)O)O1 [MLN9708, 2,2′-{2-[(1R)-1-({[(2,5dichlorobenzoyl)amino]acetyl}amino)-3-methylbutyl]-5-oxo-1,3,2-dioxaborolane-4,4-diyl}diacetic acid]
  hydrolysis to the biologically active form: immediately hydrolyzes to MLN2238
